# Measured values: patent publication US6099845A, “Process for the preparation of Rhus verniciflua extract and anti-cancer composition containing same” (Forest Genetics Research Institute, priority 1997, dated 2000)
# “Also recorded” adds a separate entry of the source.
# Legend:
# angiogenesis = settings: cited from earlier work
# cancer cells = settings: cited from earlier work
# F9 teratocarcinoma cells = settings: cited from earlier work
# LamB1 gene = type: cell-based, mouse; settings: F9 cells, 7 days; FIG. 8
# [1] = tested on: allergy and dermatopathies; settings: cited from earlier work
# [2] = tested on: blood vessel and capillary; settings: cited from earlier work
# [3] = tested on: formation of peroxidized lipids; settings: cited from earlier work
# [4] = DPPH free radical decolorization (anti-oxidative activity); type: biochemical; settings: 0.04% ethanol solution, 30 min, room temperature, 517 nm
# Protocol: DPPH(1,1-diphenyl-2-picrylhydrazyl) is a free radical which is very stable in an organic solution. […] Accordingly, it is advantageously employed in measuring anti-oxidative activity of a material.
# DPPH was dissolved in absolute ethanol to a concentration of […]("DPPH ethanol solution"). To this solution, the extract of R. verniciflua obtained in Example 1 and Sesamol (Sigma, U.S.A.), a natural anti-oxidant were added to a concentration of 0.04%, respectively to obtain an "extract ethanol solution" and a "Sesamol ethanol solution".
# 2 ml of the DPPH ethanol solution was put into each of two 4 me disposable spectrophotometer cuvettes(Muller ratiolab, Germany). Then, 2 ml of the extract ethanol solution was placed in one cuvette and 2 ml of the Sesamol ethanol solution was put into the other cuvette. The mixtures were reacted at room temperature for 30 min. As a control, a cuvette containing 4 ml of the DPPH ethanol solution was used. The absorption of each cuvette was determined at 517 nm with a spectrophotometer(HP 8453 diode array spectrophotometer). The absorption of the extract ethanol solution was calibrated with the absorption of the control, and the capability of the extract ethanol solution to decolorize the purple color of the DPPH ethanol solution was calculated based on the calibrated absorption of the Sesamol ethanol solution.
# cancer = settings: cited from earlier work
smiles,measurement,setting,value
CC1=C(/C=C/C(C)=C/C=C/C(C)=C/C(=O)O)C(C)(C)CCC1 [retinoic acid],inhibitory activity on angiogenesis (in words),angiogenesis,inhibit angiogenesis
same,differentiation of cancer cells (in words),cancer cells,induce the differentiation of cancer cells to normal cells
same,differentiation of F9 teratocarcinoma cells (in words),F9 teratocarcinoma cells,transforms into a primitive developmental form
same,expression of LamB1 gene (northern blotting),LamB1 gene,converts the gene of the cancer cell to express LamBl gene
"O=c1c(O)c(-c2ccc(O)c(O)c2)oc2cc(O)ccc12 (single isomer, unassigned) [Fisetin, 3,3',4',7-tetrahydroxyflavone]",inhibiting allergy and dermatopathies,[1],inhibiting allergy and dermatopathies
same,protecting blood vessel and capillary,[2],protecting blood vessel and capillary
same,suppressing the formation of peroxidized lipids,[3],suppressing the formation of peroxidized lipids
Oc1ccc2c(c1)OCO2 [Sesamol],anti-oxidative activity relative to Sesamol's 100,[4],100
"O=C1c2ccc(O)cc2OC(c2ccc(O)c(O)c2)C1O (single isomer, unassigned) [fustin, 3,3',4',7-tetrahydroxyflavanone]",inhibiting allergy and dermatopathies,[1],inhibiting allergy and dermatopathies
same,protecting blood vessel and capillary,[2],protecting blood vessel and capillary
same,suppressing the formation of peroxidized lipids,[3],suppressing the formation of peroxidized lipids
CC1(C)CC[C@]2(C(=O)O)CC[C@]3(C)C(=CC[C@@H]4[C@@]5(C)CC[C@H](O)C(C)(C)[C@@H]5CC[C@]43C)[C@@H]2C1 [oleanolic acid],inhibitory activity on angiogenesis (in words),angiogenesis,some inhibitory activity on angiogenesis
same,differentiation of F9 teratocarcinoma cells (in words),F9 teratocarcinoma cells,capable of differentiating F9 teratocarcinoma cells into normal cells; also recorded: induce the differentiation of F9 teratocarcinoma cells by regulating the gene involved in the differentiation
same,anti-cancer activity (in words),cancer,have anti-cancer activity
C=C1CCC(O)CC1=CC=C1CCCC2(C)C1CCC2C(C)CCCC(C)C (stereo not shown) [vitamin D3],inhibitory activity on angiogenesis (in words),angiogenesis,inhibit angiogenesis
same,differentiation of cancer cells (in words),cancer cells,induce the differentiation of cancer cells to normal cells
CC1CCC2(C(=O)O)CCC3(C)C(=CCC4C5(C)CCC(O)C(C)(C)C5CCC43C)C2C1C (stereo not shown) [urusolic acid],inhibitory activity on angiogenesis (in words),angiogenesis,some inhibitory activity on angiogenesis
same,differentiation of F9 teratocarcinoma cells (in words),F9 teratocarcinoma cells,capable of differentiating F9 teratocarcinoma cells into normal cells; also recorded: induce the differentiation of F9 teratocarcinoma cells by regulating the gene involved in the differentiation
same,anti-cancer activity (in words),cancer,have anti-cancer activity
